Results as given in PubChem BioAssay (NCI).
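GI50: concentration for 50% inhibition of growth. TGI is the concentration that stops growth completely.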

How the values were obtained:
Test in all cases: DTP human tumour cell line panel, 384-well format
CCRF-CEM leukemia = system: CCRF-CEM leukemia
NCI-H322M lung = system: NCI-H322M lung
RXF 393 renal = system: RXF 393 renal
COLO 205 colon = system: COLO 205 colon
OVCAR-3 ovarian = system: OVCAR-3 ovarian
SN12C renal = system: SN12C renal
A549 NSCLC = system: A549 NSCLC
A498 renal = system: A498 renal
DU-145 prostate = system: DU-145 prostate
MDA-MB-231 breast = system: MDA-MB-231 breast
M14 melanoma = system: M14 melanoma
MDA-MB-468 breast = system: MDA-MB-468 breast
ACHN renal = system: ACHN renal
OVCAR-8 ovarian = system: OVCAR-8 ovarian
UACC-62 melanoma = system: UACC-62 melanoma
SNB-75 CNS = system: SNB-75 CNS
UO-31 renal = system: UO-31 renal
KM12 colon = system: KM12 colon
NCI-H23 lung = system: NCI-H23 lung
K-562 leukemia = system: K-562 leukemia
NCI/ADR-RES ovarian = system: NCI/ADR-RES ovarian
MDA-MB-435 melanoma = system: MDA-MB-435 melanoma
SK-OV-3 ovarian = system: SK-OV-3 ovarian
NCI-H460 NSCLC = system: NCI-H460 NSCLC
SK-MEL-5 melanoma = system: SK-MEL-5 melanoma
HS 578T breast = system: HS 578T breast
HOP-62 NSCLC = system: HOP-62 NSCLC
HT29 colon = system: HT29 colon
NCI-H226 lung = system: NCI-H226 lung
SF-268 CNS = system: SF-268 CNS
UACC-257 melanoma = system: UACC-257 melanoma
SR leukemia = system: SR leukemia
NCI-H522 lung = system: NCI-H522 lung
PC-3 prostate = system: PC-3 prostate
LOX IMVI melanoma = system: LOX IMVI melanoma
SK-MEL-28 melanoma = system: SK-MEL-28 melanoma
TK-10 renal = system: TK-10 renal
OVCAR-4 ovarian = system: OVCAR-4 ovarian
CAKI-1 renal = system: CAKI-1 renal
MALME-3M melanoma = system: MALME-3M melanoma
EKVX NSCLC = system: EKVX NSCLC
SNB-19 CNS = system: SNB-19 CNS
OVCAR-5 ovarian = system: OVCAR-5 ovarian
SF-295 CNS = system: SF-295 CNS
IGROV1 ovarian = system: IGROV1 ovarian
MOLT-4 leukemia = system: MOLT-4 leukemia
HCC-2998 colon = system: HCC-2998 colon
BT-549 breast = system: BT-549 breast
786-0 renal = system: 786-0 renal
SF-539 CNS = system: SF-539 CNS
HL-60(TB) leukemia = system: HL-60(TB) leukemia
HCT-15 colon = system: HCT-15 colon
RPMI-8226 leukemia = system: RPMI-8226 leukemia
T-47D breast = system: T-47D breast
MCF7 breast = system: MCF7 breast
SW-620 colon = system: SW-620 colon
HOP-92 NSCLC = system: HOP-92 NSCLC

CC(C)(O)c1coc(S(=O)(=O)/N=C(\O)Nc2c3c(cc4c2CCC4)CCC3)c1 was tested, and the GI50 (CCRF-CEM leukemia) was > 100 µM, the TGI (CCRF-CEM leukemia) was > 100 µM and the GI50 (NCI-H322M lung) was > 100 µM. The TGI (NCI-H322M lung) was > 100 µM, the GI50 (RXF 393 renal) was > 100 µM and the TGI (RXF 393 renal) was > 100 µM. For the same compound, the GI50 (COLO 205 colon) was > 100 µM, the TGI (COLO 205 colon) was > 100 µM and the GI50 (OVCAR-3 ovarian) was > 100 µM. The TGI (OVCAR-3 ovarian) was > 100 µM, the GI50 (SN12C renal) was > 100 µM and the TGI (SN12C renal) was > 100 µM. The GI50 (A549 NSCLC) was > 100 µM, the TGI (A549 NSCLC) was > 100 µM and the GI50 (A498 renal) was > 100 µM. For the same compound, the TGI (A498 renal) was > 100 µM, the GI50 (DU-145 prostate) was > 100 µM and the TGI (DU-145 prostate) was > 100 µM. The GI50 (MDA-MB-231 breast) was > 100 µM, the TGI (MDA-MB-231 breast) was > 100 µM and the GI50 (M14 melanoma) was > 100 µM. For the same compound, the TGI (M14 melanoma) was > 100 µM, the GI50 (MDA-MB-468 breast) was > 100 µM and the TGI (MDA-MB-468 breast) was > 100 µM. For the same compound, the GI50 (ACHN renal) was > 100 µM, the TGI (ACHN renal) was > 100 µM and the GI50 (OVCAR-8 ovarian) was > 100 µM. The TGI (OVCAR-8 ovarian) was > 100 µM, the GI50 (UACC-62 melanoma) was > 100 µM and the TGI (UACC-62 melanoma) was > 100 µM. The GI50 (SNB-75 CNS) was > 100 µM, the TGI (SNB-75 CNS) was > 100 µM and the GI50 (UO-31 renal) was > 100 µM. For the same compound, the TGI (UO-31 renal) was > 100 µM, the GI50 (KM12 colon) was > 100 µM and the TGI (KM12 colon) was > 100 µM. The GI50 (NCI-H23 lung) was > 100 µM, the TGI (NCI-H23 lung) was > 100 µM and the GI50 (K-562 leukemia) was > 100 µM. The TGI (K-562 leukemia) was > 100 µM, the GI50 (NCI/ADR-RES ovarian) was > 100 µM and the TGI (NCI/ADR-RES ovarian) was > 100 µM. For the same compound, the GI50 (MDA-MB-435 melanoma) was > 100 µM, the TGI (MDA-MB-435 melanoma) was > 100 µM and the GI50 (SK-OV-3 ovarian) was > 100 µM. The TGI (SK-OV-3 ovarian) was > 100 µM, the GI50 (NCI-H460 NSCLC) was > 100 µM and the TGI (NCI-H460 NSCLC) was > 100 µM. The GI50 (SK-MEL-5 melanoma) was > 100 µM, the TGI (SK-MEL-5 melanoma) was > 100 µM and the GI50 (HS 578T breast) was > 100 µM. The TGI (HS 578T breast) was > 100 µM, the GI50 (HOP-62 NSCLC) was > 100 µM and the TGI (HOP-62 NSCLC) was > 100 µM. The GI50 (HT29 colon) was > 100 µM, the TGI (HT29 colon) was > 100 µM and the GI50 (NCI-H226 lung) was > 100 µM. For the same compound, the TGI (NCI-H226 lung) was > 100 µM, the GI50 (SF-268 CNS) was > 100 µM and the TGI (SF-268 CNS) was > 100 µM. For the same compound, the GI50 (UACC-257 melanoma) was > 100 µM, the TGI (UACC-257 melanoma) was > 100 µM and the GI50 (SR leukemia) was > 100 µM. For the same compound, the TGI (SR leukemia) was > 100 µM, the GI50 (NCI-H522 lung) was > 100 µM and the TGI (NCI-H522 lung) was > 100 µM. The GI50 (PC-3 prostate) was > 100 µM, the TGI (PC-3 prostate) was > 100 µM and the GI50 (LOX IMVI melanoma) was > 100 µM. The TGI (LOX IMVI melanoma) was > 100 µM, the GI50 (SK-MEL-28 melanoma) was > 100 µM and the TGI (SK-MEL-28 melanoma) was > 100 µM. For the same compound, the GI50 (TK-10 renal) was > 100 µM, the TGI (TK-10 renal) was > 100 µM and the GI50 (OVCAR-4 ovarian) was > 100 µM. The TGI (OVCAR-4 ovarian) was > 100 µM, the GI50 (CAKI-1 renal) was > 100 µM and the TGI (CAKI-1 renal) was > 100 µM. For the same compound, the GI50 (MALME-3M melanoma) was > 100 µM, the TGI (MALME-3M melanoma) was > 100 µM and the GI50 (EKVX NSCLC) was > 100 µM. For the same compound, the TGI (EKVX NSCLC) was > 100 µM, the GI50 (SNB-19 CNS) was > 100 µM and the TGI (SNB-19 CNS) was > 100 µM. For the same compound, the GI50 (OVCAR-5 ovarian) was > 100 µM, the TGI (OVCAR-5 ovarian) was > 100 µM and the GI50 (SF-295 CNS) was > 100 µM. The TGI (SF-295 CNS) was > 100 µM, the GI50 (IGROV1 ovarian) was > 100 µM and the TGI (IGROV1 ovarian) was > 100 µM. The GI50 (MOLT-4 leukemia) was > 100 µM, the TGI (MOLT-4 leukemia) was > 100 µM and the GI50 (HCC-2998 colon) was > 100 µM. The TGI (HCC-2998 colon) was > 100 µM, the GI50 (BT-549 breast) was > 100 µM and the TGI (BT-549 breast) was > 100 µM. The GI50 ([…]-0 renal) was > 100 µM, the TGI (786-0 renal) was > 100 µM and the GI50 (SF-539 CNS) was > 100 µM. The TGI (SF-539 CNS) was > 100 µM, the GI50 (HL-60(TB) leukemia) was > 100 µM and the TGI (HL-60(TB) leukemia) was > 100 µM. For the same compound, the GI50 (HCT-15 colon) was > 100 µM, the TGI (HCT-15 colon) was > 100 µM and the GI50 (RPMI-8226 leukemia) was > 100 µM. The TGI (RPMI-8226 leukemia) was > 100 µM, the GI50 (T-47D breast) was > 100 µM and the TGI (T-47D breast) was > 100 µM. For the same compound, the GI50 (MCF7 breast) was > 100 µM, the TGI (MCF7 breast) was > 100 µM and the GI50 (SW-620 colon) was > 100 µM. For the same compound, the TGI (SW-620 colon) was > 100 µM, the GI50 (HOP-92 NSCLC) was > 100 µM and the TGI (HOP-92 NSCLC) was > 100 µM.
